Measurements published in ChEMBL document CHEMBL4261632, “Synthesis of five libraries of 6,5-fused heterocycles to establish the importance of the heterocyclic core for antiplasmodial activity” (Bioorg Med Chem, 2018).

System: Plasmodium falciparum
Experiment: Antiplasmodial activity against chloroquine-sensitive Plasmodium falciparum NF54; call rule not given here
Format: functional, organism-based
[1] = Plasmodium falciparum, NF54, read-out: EC50

Cl.O=C(OCc1ccccc1)c1nc2c(OC3CCNCC3)cccc2o1
EC50: Not Active

O=C(OCCc1ccccc1)c1cc2c(OC3CCNCC3)cccc2s1
EC50 [1]: 5.87 µM

CCN(CC)CCCC(C)Nc1ccnc2cc(Cl)ccc12 (configuration not stated) [CHLOROQUINE]
EC50 [1]: 0.013 µM

Cn1c(C(=O)OCc2ccccc2)nc2cccc(OC3CCNCC3)c21
EC50 [1]: 13.3 µM

Cl.O=C(NCCc1ccccc1)c1nc2c(OC3CCNCC3)cccc2o1
EC50: Not Active

C[C@H]1[C@H](OC(=O)CCC(=O)O)O[C@@H]2O[C@@]3(C)CC[C@H]4[C@H](C)CC[C@@H]1[C@@]24OO3 [ARTESUNATE]
EC50 [1]: 0.00941 µM

Cn1c(C(=O)OCCc2ccccc2)nc2cccc(OC3CCNCC3)c21
EC50 [1]: 11.1 µM

O=C(OCc1cccc2ccccc12)c1cc2c(OC3CCNCC3)cccc2s1
EC50 [1]: 1.9 µM

O=C(NCc1ccccc1)c1cc2c(OC3CCNCC3)cccc2s1
EC50 [1]: 3.48 µM

Cn1c(C(=O)NCc2cccc3ccccc23)nc2cccc(OC3CCNCC3)c21
EC50 [1]: 1.15 µM

O=C(NCc1ccccc1)c1cc2c(OC3CCNCC3)cccc2[nH]1
EC50 [1]: 3.74 µM

Cc1c(C(=O)OCCc2ccccc2)[nH]c2cccc(OC3CCNCC3)c12
EC50 [1]: 3.9 µM

Cl.O=C(NCc1ccccc1)c1nc2c(OC3CCNCC3)cccc2o1
EC50: Not Active

O=C(NCc1cccc2ccccc12)c1cc2c(OC3CCNCC3)cccc2s1
EC50 [1]: 0.71 µM

Cn1c(C(=O)NCCc2ccccc2)nc2cccc(OC3CCNCC3)c21
EC50 [1]: 8.69 µM

O=C(NCCc1ccccc1)c1cc2c(OC3CCNCC3)cccc2s1
EC50 [1]: 3.01 µM

O=C(NCCc1ccccc1)c1cc2c(OC3CCNCC3)cccc2[nH]1
EC50 [1]: 3.1 µM

O=C(OCc1ccccc1)c1cc2c(OC3CCNCC3)cccc2[nH]1
EC50 [1]: 3.39 µM

O=C(OCc1ccccc1)c1cc2c(OC3CCNCC3)cccc2s1
EC50 [1]: 5.69 µM

O=C(NCc1cccc2ccccc12)c1cc2c(OC3CCNCC3)cccc2[nH]1
EC50 [1]: 0.9 µM

Cc1c(C(=O)OCc2cccc3ccccc23)[nH]c2cccc(OC3CCNCC3)c12
EC50 [1]: 0.74 µM

Cl.O=C(OCc1cccc2ccccc12)c1nc2c(OC3CCNCC3)cccc2o1
EC50: Not Active

O=C(OCCc1ccccc1)c1cc2c(OC3CCNCC3)cccc2[nH]1
EC50 [1]: 6.53 µM

O=C(NCc1cccc2ccccc12)c1nc2c(OC3CCNCC3)cccc2o1
EC50 [1]: 1.96 µM

Cl.O=C(OCCc1ccccc1)c1nc2c(OC3CCNCC3)cccc2o1
EC50: Not Active

Cn1c(C(=O)OCc2cccc3ccccc23)nc2cccc(OC3CCNCC3)c21
EC50 [1]: 7.37 µM

Cc1c(C(=O)NCc2ccccc2)[nH]c2cccc(OC3CCNCC3)c12
EC50 [1]: 6.11 µM

Cn1c(C(=O)NCc2ccccc2)nc2cccc(OC3CCNCC3)c21
EC50 [1]: 8.8 µM

Cc1c(C(=O)NCc2cccc3ccccc23)[nH]c2cccc(OC3CCNCC3)c12
EC50 [1]: 0.74 µM

Cc1c(C(=O)NCCc2ccccc2)[nH]c2cccc(OC3CCNCC3)c12
EC50 [1]: 3.4 µM

Cc1c(C(=O)OCc2ccccc2)[nH]c2cccc(OC3CCNCC3)c12
EC50 [1]: 0.56 µM

O=C(OCc1cccc2ccccc12)c1cc2c(OC3CCNCC3)cccc2[nH]1
EC50 [1]: 0.83 µM
